Experimental data as given in patent US20260184675A1, “CHIRAL ISOMERIC SULFITE COMPOUND AND APPLICATION THEREOF” (Chengdu Hanova BioSciences Co., Ltd, priority 2024, published 2026).

Legend:
Type in all cases: in vivo
eggs of Aleyrodidae = assay: Effect on hatching of eggs of Aleyrodidae, leaf disc method; settings: 10 ppm; for Hatching rate (%), Replicate 1 / Hatching rate (%), Replicate 2 / Hatching rate (%), Replicate 3 / Number of hatched larvae 5 days after insecticide delivery, Replicate 1 / Number of hatched larvae 5 days after insecticide delivery, Replicate 2 / Number of hatched larvae 5 days after insecticide delivery, Replicate 3: Aleyrodidae eggs; for Hatching rate (%), Replicate 1 / Hatching rate (%), Replicate 2 / Hatching rate (%), Replicate 3: 5 days after delivery; for Number of hatched larvae 5 days after insecticide delivery, Replicate 1 / Number of hatched larvae 5 days after insecticide delivery, Replicate 2 / Number of hatched larvae 5 days after insecticide delivery, Replicate 3: leaf disc
Outline: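 Leaf discs carrying Aleyrodidae eggs were first examined microscopically to record a baseline egg count. They were then dipped for 10 seconds in compound solution at 10 ppm or in clear water, taken out, and incubated with humidity maintained. Five days after delivery, the number of hatched larvae was recorded to assess hatching inhibition.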

eggs of Thrips = assay: Effect on hatching of eggs of Thrips, leaf disc method; settings: 100 ppm; for Hatching rate (%): 5 days after insecticide delivery
Outline: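 Egg-bearing Vicia faba leaf discs (diameter 2.0 cm, wetted filter paper beneath) were counted microscopically for baseline eggs. They were then soaked for 10 seconds in water or in test agent at 100 ppm. After moist incubation in lidded dishes, with controlled temperature and humidity and adequate indirect light, hatched larvae were counted five days post-delivery to judge hatching inhibition.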

[1] = test system: eggs of Spodoptera litura; assay: Effect on hatching of eggs of Spodoptera litura, egg piece soaking; settings: 500 ppm; for Hatching rate (%), Replicate 1 / Hatching rate (%), Replicate 2 / Hatching rate (%), Replicate 3 / Number of unhatched larvae 4 days after insecticide delivery, Replicate 1 / Number of unhatched larvae 4 days after insecticide delivery, Replicate 2 / Number of unhatched larvae 4 days after insecticide delivery, Replicate 3: Spodoptera litura eggs; for Hatching rate (%), Replicate 1 / Hatching rate (%), Replicate 2 / Hatching rate (%), Replicate 3: 4 days after delivery; for Number of unhatched larvae 4 days after insecticide delivery, Replicate 1 / Number of unhatched larvae 4 days after insecticide delivery, Replicate 2 / Number of unhatched larvae 4 days after insecticide delivery, Replicate 3: soaked 10 minutes
Outline: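 Egg pieces of about 60 eggs were soaked 10 min in test agent at 500 ppm, blotted, then held singly at 24±1 °C, 80±10% RH, 12:12 L:D. Hatched and unhatched eggs were counted on day 4 to give hatching rate and control effect; 3 replicates.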

[2] = test system: eggs of Tetranychus urticae; assay: Effect on hatching of eggs of Tetranychus urticae, leaf disc method; settings: 5 ppm; for Hatching rate (%): 5 days after insecticide delivery
Outline: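 This leaf disc test measured inhibition of Tetranychus urticae egg hatching. Eggs laid on Vicia faba discs were counted microscopically, and the discs were soaked for 10 seconds in compound at 5 ppm, with clear water as control. They were incubated under controlled temperature and humidity with strong indirect light, avoiding condensate. Hatched eggs, leaf damage and developmental abnormalities were recorded five days after delivery.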

[3] = Replicate 1, listed as 1′-(S, R)
[4] = Replicate 2, listed as 1′-(S, R)
[5] = Replicate 3, listed as 1′-(S, R)
[6] = Replicate 1, listed as 19′-(S, R)
[7] = Replicate 2, listed as 19′-(S, R)
[8] = Replicate 3, listed as 19′-(S, R)

In the case of CC(C)(COS(=O)OCCF)Oc1ccc(Cl)cc1Cl (stereo not drawn) [S-10′], the “inhibitory activity on the hatching of eggs of Aleyrodidae (in words)” value (eggs of Aleyrodidae) is reported as “strong inhibitory activities”, the “Hatching rate (%), Replicate 1” value (eggs of Aleyrodidae) is reported as 0.00% and the “Hatching rate (%), Replicate 2” value (eggs of Aleyrodidae) is reported as 0.00%. The “Hatching rate (%), Replicate 3” value (eggs of Aleyrodidae) was 0.00%, the “Number of hatched larvae 5 days after insecticide delivery, Replicate 1” value (from here on “Number of hatched larvae 5 days … Replicate 1”) (eggs of Aleyrodidae) was 0 and the “Number of hatched larvae 5 days after insecticide delivery, Replicate 2” value (shortened to “Number of hatched larvae 5 days … Replicate 2”) (eggs of Aleyrodidae) was 0. The “Number of hatched larvae 5 days after insecticide delivery, Replicate 3” value (“Number of hatched larvae 5 days … Replicate 3” below) (eggs of Aleyrodidae) was 0, the “inhibitory activity on the hatching of eggs of Thrips (in words)” value (eggs of Thrips) was “strong inhibitory activities” and the “Hatching rate (%)” value (eggs of Thrips; Replicate 1) was 0.00%. The “Hatching rate (%)” value (eggs of Thrips; Replicate 2) was 0.00%, the “Hatching rate (%)” value (eggs of Thrips; Replicate 3) was 0.00% and the “Number of hatched larvae 5 days after insecticide delivery” value (eggs of Thrips; Replicate 1) was 0. The “Number of hatched larvae 5 days after insecticide delivery” value (eggs of Thrips; Replicate 2) was 0, the “Number of hatched larvae 5 days after insecticide delivery” value (eggs of Thrips; Replicate 3) was 0 and the “inhibitory activity on the hatching of eggs of Spodoptera litura (in words)” value [1] was “good inhibitory activities”. For the same compound, the “Hatching rate (%), Replicate 1” value [1] was 22.03%, the “Hatching rate (%), Replicate 2” value [1] was 21.88% and the “Hatching rate (%), Replicate 3” value [1] was 21.67%. The “Number of unhatched larvae 4 days after insecticide delivery, Replicate 1” value (from here on “Number of unhatched larvae 4 days … Replicate 1”) [1] was 46, the “Number of unhatched larvae 4 days after insecticide delivery, Replicate 2” value (“Number of unhatched larvae 4 days … Replicate 2” for short) [1] was 50 and the “Number of unhatched larvae 4 days after insecticide delivery, Replicate 3” value (“Number of unhatched larvae 4 days … Replicate 3” for short) [1] was 47. The “inhibitory activity on the hatching of eggs of Tetranychus urticae (in words)” value [2] was “strong inhibitory activities”, the “Hatching rate (%)” value ([2]; Replicate 1) was 0.00% and the “Hatching rate (%)” value ([2]; Replicate 2) was 0.00%. The “Number of hatched larvae 5 days after insecticide delivery” value ([2]; Replicate 1) was 0 and the “Number of hatched larvae 5 days after insecticide delivery” value ([2]; Replicate 2) was 0.
With CC(C)(COc1ccc(Cl)cc1Cl)OS(=O)OCCF (stereo not drawn) [Compound R-10] the “Hatching rate (%), Replicate 1” value (eggs of Aleyrodidae) was 9.79%, the “Hatching rate (%), Replicate 2” value (eggs of Aleyrodidae) was 9.42% and the “Hatching rate (%), Replicate 3” value (eggs of Aleyrodidae) was 9.92%. For the same compound, the “Number of hatched larvae 5 days … Replicate 1” value (eggs of Aleyrodidae) was 14, the “Number of hatched larvae 5 days … Replicate 2” value (eggs of Aleyrodidae) was 13 and the “Number of hatched larvae 5 days … Replicate 3” value (eggs of Aleyrodidae) was 12. The “Hatching rate (%)” value (eggs of Thrips; Replicate 1) was 15.31%, the “Hatching rate (%)” value (eggs of Thrips; Replicate 2) was 14.50% and the “Hatching rate (%)” value (eggs of Thrips; Replicate 3) was 14.53%. For the same compound, the “Number of hatched larvae 5 days after insecticide delivery” value (eggs of Thrips; Replicate 1) was 15, the “Number of hatched larvae 5 days after insecticide delivery” value (eggs of Thrips; Replicate 2) was 19 and the “Number of hatched larvae 5 days after insecticide delivery” value (eggs of Thrips; Replicate 3) was 17. For the same compound, the “Hatching rate (%), Replicate 1” value [1] was 60.87%, the “Hatching rate (%), Replicate 2” value [1] was 64.15% and the “Hatching rate (%), Replicate 3” value [1] was 62.07%. The “Number of unhatched larvae 4 days … Replicate 1” value [1] was 27, the “Number of unhatched larvae 4 days … Replicate 2” value [1] was 19 and the “Number of unhatched larvae 4 days … Replicate 3” value [1] was 22. The “Hatching rate (%)” value ([2]; Replicate 1) was 18.06%, the “Hatching rate (%)” value ([2]; Replicate 2) was 16.13% and the “Number of hatched larvae 5 days after insecticide delivery” value ([2]; Replicate 1) was 13. For the same compound, the “Number of hatched larvae 5 days after insecticide delivery” value ([2]; Replicate 2) was 15.
For CC(COc1ccc(Cl)cc1Cl)OS(=O)OCCF [1′-(S,R)], the “inhibitory activity on the hatching of eggs of Aleyrodidae (in words)” value (eggs of Aleyrodidae) was “strong inhibitory activities”, the “Hatching rate (%), Replicate 1” value (eggs of Aleyrodidae; listed as 1′-(S, R)) was 0.00% and the “Hatching rate (%), Replicate 2” value (eggs of Aleyrodidae; listed as 1′-(S, R)) was 0.00%. For the same compound, the “Hatching rate (%), Replicate 3” value (eggs of Aleyrodidae; listed as 1′-(S, R)) was 0.00%, the “Number of hatched larvae 5 days … Replicate 1” value (eggs of Aleyrodidae; listed as 1′-(S, R)) was 0 and the “Number of hatched larvae 5 days … Replicate 2” value (eggs of Aleyrodidae; listed as 1′-(S, R)) was 0. The “Number of hatched larvae 5 days … Replicate 3” value (eggs of Aleyrodidae; listed as 1′-(S, R)) was 0, the “inhibitory activity on the hatching of eggs of Thrips (in words)” value (eggs of Thrips) was “strong inhibitory activities” and the “Hatching rate (%)” value (eggs of Thrips; [3]) was 0.00%. The “Hatching rate (%)” value (eggs of Thrips; [4]) was 0.00%, the “Hatching rate (%)” value (eggs of Thrips; [5]) was 0.00% and the “Number of hatched larvae 5 days after insecticide delivery” value (eggs of Thrips; [3]) was 0. The “Number of hatched larvae 5 days after insecticide delivery” value (eggs of Thrips; [4]) was 0, the “Number of hatched larvae 5 days after insecticide delivery” value (eggs of Thrips; [5]) was 0 and the “inhibitory activity on the hatching of eggs of Spodoptera litura (in words)” value [1] was “good inhibitory activities”. For the same compound, the “Hatching rate (%), Replicate 1” value ([1]; listed as 1′-(S, R)) was 27.87%, the “Hatching rate (%), Replicate 2” value ([1]; listed as 1′-(S, R)) was 26.98% and the “Hatching rate (%), Replicate 3” value ([1]; listed as 1′-(S, R)) was 21.05%. The “Number of unhatched larvae 4 days … Replicate 1” value ([1]; listed as 1′-(S, R)) was 44, the “Number of unhatched larvae 4 days … Replicate 2” value ([1]; listed as 1′-(S, R)) was 46 and the “Number of unhatched larvae 4 days … Replicate 3” value ([1]; listed as 1′-(S, R)) was 45. The “inhibitory activity on the hatching of eggs of Tetranychus urticae (in words)” value [2] was “strong inhibitory activities”, the “Hatching rate (%)” value [2, 3] was 0.00% and the “Hatching rate (%)” value [2, 4] was 0.00%. The “Number of hatched larvae 5 days after insecticide delivery” value [2, 3] was 0 and the “Number of hatched larvae 5 days after insecticide delivery” value [2, 4] was 0.
CC[C@@H](COS(=O)OCCF)Oc1ccc(Cl)cc1Cl (stereo partly drawn) [19′-(S,R)] was tested, and the “Hatching rate (%), Replicate 1” value (eggs of Aleyrodidae; listed as 19′-(S, R)) was 10.53%, the “Hatching rate (%), Replicate 2” value (eggs of Aleyrodidae; listed as 19′-(S, R)) was 10.24% and the “Hatching rate (%), Replicate 3” value (eggs of Aleyrodidae; listed as 19′-(S, R)) was 10.20%. The “Number of hatched larvae 5 days … Replicate 1” value (eggs of Aleyrodidae; listed as 19′-(S, R)) was 10, the “Number of hatched larvae 5 days … Replicate 2” value (eggs of Aleyrodidae; listed as 19′-(S, R)) was 13 and the “Number of hatched larvae 5 days … Replicate 3” value (eggs of Aleyrodidae; listed as 19′-(S, R)) was 10. For the same compound, the “Hatching rate (%)” value (eggs of Thrips; [6]) was 9.40%, the “Hatching rate (%)” value (eggs of Thrips; [7]) was 10.32% and the “Hatching rate (%)” value (eggs of Thrips; [8]) was 9.52%. For the same compound, the “Number of hatched larvae 5 days after insecticide delivery” value (eggs of Thrips; [6]) was 11, the “Number of hatched larvae 5 days after insecticide delivery” value (eggs of Thrips; [7]) was 13 and the “Number of hatched larvae 5 days after insecticide delivery” value (eggs of Thrips; [8]) was 8. The “Hatching rate (%), Replicate 1” value ([1]; listed as 19′-(S, R)) was 53.57%, the “Hatching rate (%), Replicate 2” value ([1]; listed as 19′-(S, R)) was 53.23% and the “Hatching rate (%), Replicate 3” value ([1]; listed as 19′-(S, R)) was 53.73%. The “Number of unhatched larvae 4 days … Replicate 1” value ([1]; listed as 19′-(S, R)) was 26, the “Number of unhatched larvae 4 days … Replicate 2” value ([1]; listed as 19′-(S, R)) was 29 and the “Number of unhatched larvae 4 days … Replicate 3” value ([1]; listed as 19′-(S, R)) was 31. The “Hatching rate (%)” value [2, 6] was 10.81%, the “Hatching rate (%)” value [2, 7] was 11.49% and the “Number of hatched larvae 5 days after insecticide delivery” value [2, 6] was 12. For the same compound, the “Number of hatched larvae 5 days after insecticide delivery” value [2, 7] was 10.
